From patent US7504203B2 (priority 2002, dated 2009)

Molecular target: GST-fused SCDH enzyme expressed from the standard strain cDNA (Pyricularia oryzae, UniProt P56221)
Type: biochemical, rice blast fungus (Pyricularia oryzae)

Sequence of GST-fused SCDH enzyme expressed from the standard strain cDNA (P56221 whole entry, looked up, the tested form may be a part): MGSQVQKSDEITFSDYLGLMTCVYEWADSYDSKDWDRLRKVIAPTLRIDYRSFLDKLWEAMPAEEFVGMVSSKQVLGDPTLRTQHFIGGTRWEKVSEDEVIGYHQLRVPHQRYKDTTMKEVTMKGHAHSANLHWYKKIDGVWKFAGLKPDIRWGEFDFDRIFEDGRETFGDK

## CCC1(C(=O)N[C@H](C)c2ccc(Cl)cc2)C(C)C1(Cl)Cl (stereo partly shown) [carpropamid]
  drug sensitivity compared with SCDH enzyme in crude enzyme solution from rice blast fungus: exhibited the same drug sensitivity
